Source: patent publication US7851436B2, “Inhibition of migration and induction of cell death by the type II collagen amino propeptides” (Washington University, priority 2007, dated 2010)
“Also recorded” adds a separate entry of the source.

How the values were obtained:
[1] = system: FGF induced mouse cornea neovascularization; experiment: In vivo mouse cornea angiogenesis inhibition assay; conditions: Balb/c mice, osmotic pumps, one week
Protocol: FGF containing PolyHEMA pellets were implanted into the corneas of 6 week old Balb/c mice. The mice received osmotic pumps containing a number of proteins to measure the ability of each protein to inhibit angiogenesis. After one week the mice were sacrificed and angiogenesis was quantified based on the total vessel length seen from fluorescently labeled vessels.
To prepare a FGF Pellet (67 ng/quarter pellet) PBS (1 μl of 1×PBS pH 7.4), sucralfate (Sigma, #S0652)(1 μL of a 100 mg/mL suspension of sucralfate), Human FGF-2 (Peprotech, 100-1 8B)(1 μL of 3.2 mg/mL FGF-2), and poly-hema (poly(2-hydroxyethyl methacrylate), Sigma, P3932)(3 μL of 250 mg/mL poly-hema) were combined. Pellets (0.5 μL) were prepped on parafilm, air dried for 10-20 mins, and divided into quarters. The resulting pellets were sealed with parafilm and stored at −20° C. until needed.
To implant the pellet, a mouse was injected with Ketamine/Xylazine (about 0.1 mg KX/gram mouse, IP injection). […]
After one week the mice are injected with same amount of Ketamine given during the implantation procedure. […] Any remaining tissues will show up when the cornea is mounted and viewed with fluorescence. […] Angiogenesis is measured by total vessel outgrowth based on the fluorescently stained blood vessels using Metamorph software (FIG. 9).

[2] = system: osteoclasts differentiated from Raw 264.7 cells, integrin αv siRNA treated; experiment: Osteoclast death after integrin αv siRNA; type: cell-based, mouse; conditions: 16 hours
Protocol: FIG. 11 depicts a graph showing PIIBNP-induced osteoclast death. siRNA specifically targeted to integrin αv was purchased from San Cruz (San Cruz, Calif.). Raw 264.7 cells were differentiated into osteoclasts by treatment with 100 nM of s-RANKL. The integrin αv expression in the […] were suppressed by treatment of the cells with siRNA. Integrin αv suppressed osteoblasts were incubated with recombinant GST, PIIBNP or mPIIBNP for 16 hours. Cell viability was assayed by a trypan blue exclusion test as described in FIG. 3.

In the case of “PIIBNP: Recombinant human Type IIB procollagen NH2-propeptide (exons 3-8, lacking exon 2), expressed as GST fusion protein”, the “inhibition of angiogenesis (cornea neovascularization)” value ([1]; FGF pellets) is reported as “inhibits angiogenesis in vivo; also recorded: suppression of neovascularization”, the toxicity [1] is reported as “no apparent toxicity” and the “PIIBNP-induced osteoclast death after integrin αv siRNA compared with control siRNA” value [2] is reported as “significantly reduced”.
